In patent US8791079B2, “Methods for treating heart failure by inhibiting the mitochondrial sodium-calcium exchanger (mNCE)” (priority 2009, dated 2014):
Where two headings read alike, the source gives them in different places.

Columns and labels:
[1] = system: HF patients; conditions: cited from earlier work; for mortality: post hoc analysis of DIG trial
[2] = system: Guinea pig hearts; assay: Hemodynamics of isolated perfused hearts (Langendorff); conditions: 25-nM isoproterenol in ouabain-treated hearts, absence (isoproterenol) or presence of CGP-37157
Excerpt: (§1) Guinea pig hearts were quickly excised under anesthesia and mounted on a modified Langendorff apparatus attached to a Powerlab system (AD Instruments, Colorado Springs, Colo.). Hearts were perfused with gassed (95/5% O2/CO2) control buffer containing: 118-mM NaCl, 24-mM NaHCO3, 1.2-mM KH2PO4, 4.75-mM KCl, 1.2-mM MgSO4, 2.0-mM CaCl2, and 10-mM glucose. A buffer-filled latex balloon (Harvard apparatus) was inserted through the mitral valve into the left ventricle. Hearts were suspended in a buffer-filled heating chamber maintained at 37° C. and two electrodes were placed into the bath for volume-conducted electrocardiogram recordings. Heart rate, left ventricular developed pressure (LVDP), maximal rates of contraction and relaxation (±dP/dt), oxygen consumption, and electrocardiograms (ECG) were recorded on a computer. After a ten-minute equilibration period, hearts were subjected to the following protocol: ten-minute baseline recording while the heart was perfused with control buffer, ten-minute recording while 0.25-μM ouabain with or without 1 μM CGP-37157, and sixty-minute recording while hearts were stimulated with 25-nM isoproterenol. The measurements of hemodynamic parameters were determined by taking the average during the last two minutes before ouabain treatment (baseline) and for two minutes during the maximal effect on LVDP of either ouabain or isoproterenol.
In Table 1A-1C, hemodynamics of isolated perfused hearts were recorded at baseline, with ouabain treatment (1 μM), and with ouabain plus isoproterenol (100 nM) stimulation with or without CGP-37157 (1 μM). HR, heart rate; LVDP, left ventricular developed pressure; Oua: ouabain; CGP: CGP-37157; VF: ventricular fibrillation. *p<0.05 compared to group without CGP; † p<0.05 compared to baseline.

[3] = system: Guinea pig hearts; assay: Oxygen consumption in isolated perfused hearts; conditions: ouabain followed by isoproterenol, without (isoproterenol) or with CGP-37157
Excerpt: as §1
Cardiac O2 concentration was measured with an O2 probe attached to a PowerLab system (AD Instruments). The probe was calibrated with 95% O2-saturated buffer as 100% and 100% N2-saturated buffer as 0%. The molar concentration of O2 consumption was calculated from percentage concentration with the following equation: VO2(μmol/min/g dwt)=CF×(0.02373/22.414)×((760−p)/760)×(ΔO2%/100)/dwt
where CF is coronary flow (mL/min); 0.02373 is the absorption coefficient of O2 in H2O at 37° C.; 22.414 is the volume (L) of 1 mol gas at STP; 760 is 1 atm in mm Hg; p equals 47.067, which is the vapor pressure of H2O at 37° C.; ΔO2% is the difference in O2 percentage concentration between inflow buffer collected from cannula before heart was mounted and outflow buffer collected from pulmonary artery; dwt is dry heart weight.

Structure (SMILES) | overall mortality ([1]; DIG trial, HF patients) | mortality ([1]; SDC ≧1.0 ng/mL) | mortality ([1]; serum digoxin concentration (SDC) 0.5-0.9 ng/mL) | increase of +dP/dt compared to the level with ouabain treatment [2] | increase of LVDP compared to the level with ouabain treatment [2] | increase of heart rate (HR) compared to the level with ouabain treatment [2] | increase of −dP/dt compared to the level with ouabain treatment [2] | increase of whole-heart oxygen consumption (VO2) compared to baseline [3]
C[C@H]1O[C@@H](OC2[C@@H](O)C[C@H](OC3[C@@H](O)CC(O[C@H]4CC[C@@]5(C)[C@H](CC[C@@H]6[C@@H]5C[C@@H](O)[C@]5(C)[C@@H](C7=CC(=O)OC7)CC[C@]65O)C4)O[C@@H]3C)O[C@@H]2C)C[C@H](O)C1O (stereo in doubt) [digoxin, 4-[(3S,5R,8R,9S,10S,12R,13S,14S)-3-[(2S,4S,5R,6R)-5-[(2S,4S,5R,6R)-5-[(2S,4S,5R,6R)-4,5-dihydroxy-6-methyl-oxan-2-yl]oxy-4-hydroxy-6-methyl-oxan-2-yl]oxy-4-hydroxy-6-methyl-oxan-2-yl]oxy-12,14-dihydroxy-10,13-dimethyl-1,2,3,4,5,6,7,8,9,11,12,15,16,17-tetradecahydrocyclopenta[a]phenanthren-17-yl]-5H-furan-2-one] | did not affect overall mortality | no effect on mortality | reduced mortality of all HF patients | – | – | – | – | –
CC(C)NCC(O)c1ccc(O)c(O)c1 (centres unmarked) [isoproterenol, 4-[1-hydroxy-2-(isopropylamino)ethyl]benzene-1,2-diol, reference compound] | – | – | – | 57% | not increased further | 28% | 52% | 25%
